Laboratory results reported in PMC3827198, “Characterisation of AmphiAmR11, an Amphioxus (Branchiostoma floridae) D2-Dopamine-Like G Protein-Coupled Receptor” (PLoS ONE, 2013).
Counter-ions that a name gives are not always drawn. Like-named read-outs stand apart in the source and are kept apart here.

Experiments:
AmphiAmR11 [1] = biological target: T1, AmphiAmR11 (Branchiostoma floridae, UniProt A0PF35); assay: Block of tyramine-induced inhibition of forskolin-stimulated cAMP levels in AmphiAmR11-expressing CHO-K1 cells; format: cell-based; conditions: 30 nM tyramine; for Block of tyramine-induced inhibition of forskolin-stimulated cAMP levels: 10 µM forskolin
T1 sequence (A0PF35 entry or part of it): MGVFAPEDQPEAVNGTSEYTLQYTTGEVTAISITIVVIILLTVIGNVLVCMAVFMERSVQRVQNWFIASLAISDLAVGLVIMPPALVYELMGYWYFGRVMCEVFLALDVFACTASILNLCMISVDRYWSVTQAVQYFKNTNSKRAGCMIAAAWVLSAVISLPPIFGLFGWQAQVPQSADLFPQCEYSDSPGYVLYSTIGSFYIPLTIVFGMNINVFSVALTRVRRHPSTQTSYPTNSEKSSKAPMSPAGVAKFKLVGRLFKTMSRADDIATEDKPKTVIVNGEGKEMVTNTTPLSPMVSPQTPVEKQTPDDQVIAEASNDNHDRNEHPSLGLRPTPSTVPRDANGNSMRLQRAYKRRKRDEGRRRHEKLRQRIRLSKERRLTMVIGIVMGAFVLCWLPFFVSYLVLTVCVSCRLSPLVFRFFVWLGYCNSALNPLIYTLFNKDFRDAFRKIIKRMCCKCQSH

DD2R = tested on: DD2R; set-up: method as in PMID 12391323; conditions: cited from earlier work; for Antagonist effect at invertebrate D2-like receptor DD2R at high concentration: 10 µM
CeDOP2S = tested on: CeDOP2S; set-up: method as in PMID 12887685; conditions: cited from earlier work; for Antagonist effect at invertebrate D2-like receptor CeDOP2S at high concentration: 10 µM
CeDOP2L = tested on: CeDOP2L; set-up: method as in PMID 12887685; conditions: cited from earlier work; for Antagonist effect at invertebrate D2-like receptor CeDOP2L at high concentration: 10 µM
AmphiAmR11 [2] = biological target: T1, AmphiAmR11; assay: Inhibition of forskolin-stimulated cAMP levels in AmphiAmR11-expressing CHO-K1 cells (agonist mode); format: cell-based; conditions: for Decrease of forskolin-stimulated cAMP levels by antagonist in the absence of agonist: 1 μM antagonist; for Agonist type at AmphiAmR11 (full or partial): cAMP assay; for Inhibition of forskolin-stimulated cAMP levels (maximal): concentration-response curves, absence of other agonist
Experimental: CHO-K1 cells were maintained in Ham’s F-12 nutrient media (Invitrogen Life Sciences) supplemented with 10% charcoal-stripped foetal bovine serum (CS-FBS) (Hyclone, Cramlington, UK), 50 U/μg penicillin/streptomycin and 4 mM L-glutamine (Invitrogen Life Sciences) in 5% CO2 at 37°C. Stably transfected cell lines were generated by the transfection of CHO-K1 cells using Lipofectamine (Invitrogen Life Sciences) as described previously [8, 9].
cAMP levels in stably transfected CHO-K1 cells were determined as described previously [8, 9, 21], except 100 µM isobutylmethylxanthine (IBMX) was used. cAMP levels are represented as a percentage of basal samples unless otherwise stated. Student’s T-test (two-tailed and unpaired) was used to test for significance. Unless otherwise stated, all data are shown as mean ± SEM. Each data point plotted was the mean of data obtained from at least three experiments. Within each experiment three separate replicate wells were analysed for each condition and the cAMP assays on each of the wells was carried out in duplicate.
Forskolin was used both to increase basal cAMP levels to make it easier to detect increases and decreases in cAMP levels in the same experiments and also to potentiate responses to agonists to more accurately determine their threshold effects [see 22]. A non-saturating 10 µM concentration of forskolin was used.
Figure 1 Effect of biogenic amines and synthetic agonists on forskolin-stimulated cAMP levels in AmphiAmR11-expressing CHO-K1 cells. Cells were pre-incubated with 100 µM IBMX for 20 min, followed by incubation with 10 µM forskolin and 100 µM IBMX in the presence of increasing concentrations of various biogenic amines (A) or synthetic agonists (B) for a further 20 min. Data are expressed as the mean ± SEM. n ≥ 3.

AmphiAmR11 [3] = biological target: T1, AmphiAmR11; assay: ERK1/2 phosphorylation in AmphiAmR11-expressing CHO-K1 cells (Western blotting); format: cell-based; conditions: for Effect of antagonist on ERK1/2 phosphorylation in the absence of dopamine: 1 μM antagonist
AmphiAmR11 [4] = biological target: T1, AmphiAmR11; assay: Block of dopamine-induced ERK1/2 activation in AmphiAmR11-expressing CHO-K1 cells by antagonists; format: cell-based; conditions: 1 µM antagonist, 10 nM dopamine, 5 min
human 5HT1A receptor = conditions: cited from earlier work
AmphiAmR11 [5] = biological target: T1, AmphiAmR11; assay: cell-based; format: cell-based
AmphiAmR11 [6] = biological target: T1, AmphiAmR11; assay: Calcium mobilisation in AmphiAmR11-expressing CHO-K1 cells (Fura-2, percentage of responding cells per field of view); format: cell-based; conditions: for Calcium response at 10 nM: 10 nM biogenic amine, compared with dopamine
Experimental: Stably transfected CHO-K1 cells were assayed for changes in intracellular calcium levels using an Olympus Cell^R imaging system and the fluorescent indicator Fura-2, as described previously, with modifications described by Bayliss et al.. At 1 minute into the experiment, a buffer control was added and at 2 minutes into the experiment, the specified concentration of agonist was added. A single coverslip of cells was used per concentration of agonist and the percentage of cells that responded per field of view was calculated. The results from each coverslip gave an n of 1 and each agonist concentration was repeated at least three times on different days.
Figure 6 Effect of biogenic amines and calcium pathway inhibitors on calcium mobilisation in AmphiAmR11-expressing CHO-K1 cells. AmphiAmR11-expressing cells were exposed to increasing concentrations (A) or 10 nM (B) of biogenic amines for 3 minutes and the number of responding cells per field of view were calculated. Data are expressed as the mean ± SEM. n ≥ 3. FOV, field of view; DA, dopamine; TA, tyramine; NA, noradrenaline; Adr, adrenaline; OA, octopamine.

D2-dopamine receptors = tested on: D2-dopamine receptors; set-up: method as in PMID 10531409, PMID 9572301; conditions: cited from earlier work
D3-dopamine receptors = tested on: D3-dopamine receptors; set-up: method as in PMID 10531409, PMID 9572301; conditions: cited from earlier work
AmphiAmR4 = tested on: AmphiAmR4; set-up: method as in PMID 23183848; conditions: cited from earlier work
[7] = 10 µM forskolin, 100 µM IBMX, 20 min, full concentration response curves, read-out: EC50 for decrease in forskolin-stimulated cAMP levels
[8] = amines at 100 µM, pertussis toxin 200 ng/mL, 16 hours
[9] = pertussis toxin 200 ng/mL, 16 h, up to 100 µM

## CN1CCc2cc(Cl)c(O)cc2[C@@H](c2ccccc2)C1 [SCH23390, R(+)-7-chloro-8-hydroxy-3-methyl-1-phenyl-2,3,4,5-tetrahydro-^1H-3-benzazepine hydrochloride]
AmphiAmR11 [1]; 1 μM antagonist
  Block of tyramine-induced inhibition of forskolin-stimulated cAMP levels: no significant blocking effect
DD2R
  Effect on dopamine-mediated signalling via DD2R: not to affect
CeDOP2S
  Effect on dopamine-mediated signalling via CeDOP2S: not to affect
CeDOP2L
  Effect on dopamine-mediated signalling via CeDOP2L: not to affect

## CN(C)CCCN1c2ccccc2Sc2ccc(Cl)cc21 [chlorpromazine]
DD2R
  Effect on dopamine-mediated signalling via DD2R: not to affect
CeDOP2S
  Effect on dopamine-mediated signalling via CeDOP2S: not to affect
CeDOP2L
  Effect on dopamine-mediated signalling via CeDOP2L: not to affect

## COC(=O)[C@@H]1[C@H]2C[C@H]3c4[nH]c5ccccc5c4CCN3C[C@@H]2CC[C@@H]1O [yohimbine, yohimbine hydrochloride]
AmphiAmR11 [2]
  EC50: 17.1 nM
  Agonist type at AmphiAmR11 (full or partial): full agonists
  Inhibition of forskolin-stimulated cAMP levels (maximal): greater than 90%
AmphiAmR11 [2]; 10 µM forskolin
  Decrease of forskolin-stimulated cAMP levels by antagonist in the absence of agonist: could inhibit forskolin-stimulated cAMP levels
AmphiAmR11 [1]; 1 μM antagonist
  Apparent enhancement of tyramine-induced inhibition of forskolin-stimulated cAMP levels: appeared to enhance
  Block of tyramine-induced inhibition of forskolin-stimulated cAMP levels: no significant blocking effect
AmphiAmR11 [1]; varying concentrations of antagonist
  Blocking effect on tyramine-induced response at reduced antagonist concentrations: no blocking effect
AmphiAmR11 [3]
  Effect of antagonist on ERK1/2 phosphorylation in the absence of dopamine: increase in ERK1/2 phosphorylation
AmphiAmR11 [4]
  Block of dopamine-induced ERK1/2 activation: no significant effect
Human 5HT1A receptor
  Agonist activity at human 5HT1A receptor: partial agonist activity

## Cl.Cl.OCCN1CCN(CC/C=C2/c3ccccc3Sc3ccc(C(F)(F)F)cc32)CC1 [flupenthixol, cis-(Z)-flupenthixol dihydrochloride]
AmphiAmR11 [1]; 1 μM antagonist
  Block of tyramine-induced inhibition of forskolin-stimulated cAMP levels: no significant blocking effect
AmphiAmR11 [3]
  Effect of antagonist on ERK1/2 phosphorylation in the absence of dopamine: did not exhibit any agonistic properties
AmphiAmR11 [4]
  Block of dopamine-induced ERK1/2 activation: no significant effect
DD2R
  Antagonist effect at invertebrate D2-like receptor DD2R at high concentration: only a partial effect
CeDOP2S
  Antagonist effect at invertebrate D2-like receptor CeDOP2S at high concentration: only a partial effect
CeDOP2L
  Antagonist effect at invertebrate D2-like receptor CeDOP2L at high concentration: only a partial effect

## CC(C)(C)[C@]1(O)CCN2C[C@H]3c4ccccc4CCc4cccc(c43)[C@@H]2C1 [butaclamol, (+)-butaclamol hydrochloride]
AmphiAmR11 [1]; 1 μM antagonist
  Block of tyramine-induced inhibition of forskolin-stimulated cAMP levels: no significant blocking effect
AmphiAmR11 [3]
  Effect of antagonist on ERK1/2 phosphorylation in the absence of dopamine: did not exhibit any agonistic properties
AmphiAmR11 [4]
  Block of dopamine-induced ERK1/2 activation: no significant effect
DD2R
  Antagonist effect at invertebrate D2-like receptor DD2R at high concentration: only a partial effect
CeDOP2S
  Antagonist effect at invertebrate D2-like receptor CeDOP2S at high concentration: only a partial effect
CeDOP2L
  Antagonist effect at invertebrate D2-like receptor CeDOP2L at high concentration: only a partial effect

## NCCc1ccc(O)cc1 [tyramine, tyramine hydrochloride]
AmphiAmR11 [2]; [7]
  EC50: 7.47 nM
AmphiAmR11 [5]; after pertussis toxin
  Concentrations coupling AmphiAmR11 to an increase in cAMP levels: above 1 µM
AmphiAmR11 [5]; [8]
  Effect on forskolin-stimulated cAMP levels following pertussis toxin treatment: increase in forskolin-stimulated cAMP levels
AmphiAmR11 [5]; [9]
  Concentration dependence of increase in forskolin-stimulated cAMP levels following pertussis toxin: concentration-dependent effects
AmphiAmR11 [3]
  EC50: 18.2 nM
AmphiAmR11 [3]; 1 µM tyramine (level by 30 minutes) or 30 nM dopamine
  Duration of ERK1/2 phosphorylation response after the peak: approximately half that of its peak at 5 minutes
AmphiAmR11 [3]; 1 µM tyramine or 30 nM dopamine
  Time of peak ERK1/2 phosphorylation: approximately 5 minutes
AmphiAmR11 [6]; 3 minutes exposure, read-out: EC50 for calcium mobilisation (percentage of responding cells per field of view)
  EC50: 767 nM

## O=C(CCCN1CCC2(CC1)C(=O)NCN2c1ccccc1)c1ccc(F)cc1 [spiperone, spiperone hydrochloride]
AmphiAmR11 [3]
  Effect of antagonist on ERK1/2 phosphorylation in the absence of dopamine: did not exhibit any agonistic properties
AmphiAmR11 [4]
  Block of dopamine-induced ERK1/2 activation: no significant effect
DD2R
  Effect on dopamine-mediated signalling via DD2R: little or no effect
CeDOP2S
  Effect on dopamine-mediated signalling via CeDOP2S: little or no effect
CeDOP2L
  Effect on dopamine-mediated signalling via CeDOP2L: little or no effect

## CNC[C@H](O)c1ccc(O)c(O)c1 [adrenaline, (-)-adrenaline]
AmphiAmR11 [2]
  EC50: 1340 nM
AmphiAmR11 [5]
  Concentration dependence of increase in forskolin-stimulated cAMP levels following pertussis toxin: concentration-dependent effects
  Concentrations coupling AmphiAmR11 to an increase in cAMP levels: above 1 µM
  Effect on forskolin-stimulated cAMP levels following pertussis toxin treatment: increase in forskolin-stimulated cAMP levels
AmphiAmR11 [3]
  Effect on ERK1/2 phosphorylation at 10 nM: not able to increase
AmphiAmR11 [6]
  Calcium response at 10 nM: less effective than dopamine

## NC[C@H](O)c1ccc(O)c(O)c1 [noradrenaline, (-)-noradrenaline hydrochloride]
AmphiAmR11 [2]
  EC50: 844 nM
AmphiAmR11 [5]; after pertussis toxin
  Concentrations coupling AmphiAmR11 to an increase in cAMP levels: above 1 µM
AmphiAmR11 [5]; [8]
  Effect on forskolin-stimulated cAMP levels following pertussis toxin treatment: increase in forskolin-stimulated cAMP levels
AmphiAmR11 [5]; [9]
  Concentration dependence of increase in forskolin-stimulated cAMP levels following pertussis toxin: concentration-dependent effects
AmphiAmR11 [3]; 10 nM biogenic amine, 5 min
  Effect on ERK1/2 phosphorylation at 10 nM: not able to increase
AmphiAmR11 [6]
  Calcium response at 10 nM: less effective than dopamine

## COC[C@H]1OC(=O)c2coc3c2[C@@]1(C)C1=C(C3=O)[C@@H]2CCC(=O)[C@@]2(C)C[C@H]1OC(C)=O [wortmannin]
D2-dopamine receptors
  Effect on D2-mediated ERK1/2 activation in CHO cells: partially reduce
D3-dopamine receptors
  Effect on D3-mediated ERK1/2 activation in CHO cells: partially reduce

## c1ccc2c(CC3=NCCN3)cccc2c1 [naphazoline, naphazoline hydrochloride]
AmphiAmR11 [2]; 1 µM agonist, 10 µM forskolin, 100 µM IBMX, 20 min
  Effect on forskolin-stimulated cAMP levels at 1 µM: most effective agonists
AmphiAmR11 [2]; [7]
  EC50: 0.287 nM
AmphiAmR11 [3]; 100 nM synthetic agonist, 5 min
  Effect on ERK1/2 phosphorylation at 100 nM: increased the ERK1/2 phosphorylation level above that of the basal condition
AmphiAmR11 [3]; 1 µM synthetic agonist, 5 min, dopamine as reference
  Effect on ERK1/2 phosphorylation at 1 µM: most effective of the synthetic agonists
AmphiAmR4
  Agonist activity at AmphiAmR4: most potent agonist

## COC(=O)[C@H]1[C@H]2C[C@H]3c4[nH]c5ccccc5c4CCN3C[C@H]2CC[C@@H]1O [rauwolscine, rauwolscine hydrochloride]
AmphiAmR11 [2]
  EC50: 121 nM
  Agonist type at AmphiAmR11 (full or partial): full agonists
  Inhibition of forskolin-stimulated cAMP levels (maximal): greater than 90%
AmphiAmR11 [2]; 10 µM forskolin
  Decrease of forskolin-stimulated cAMP levels by antagonist in the absence of agonist: could inhibit forskolin-stimulated cAMP levels
AmphiAmR11 [1]; 1 μM antagonist
  Block of tyramine-induced inhibition of forskolin-stimulated cAMP levels: no significant blocking effect
AmphiAmR11 [3]
  Effect of antagonist on ERK1/2 phosphorylation in the absence of dopamine: increase in ERK1/2 phosphorylation
AmphiAmR11 [4]
  Block of dopamine-induced ERK1/2 activation: no significant effect
Human 5HT1A receptor
  Agonist activity at human 5HT1A receptor: partial agonist activity
